# Assay results as given in patent US7709486B2, “CXCR4 antagonists” (Genzyme Corporation, priority 1998, dated 2010).
# System: collagen-induced arthritis (CIA)
# Method: The experiments were performed in 8- to 12-week old mice, but in each experiment, the mutant and wild-type mice were age-matched with a 5 day limit. The male to female ratio was kept between 0.8 and 1.3 in each experimental group.
# Native chicken collagen type II (EPC, Owensvillle, Mo.) was dissolved in 0.05 M acetic acid at 2 mg/ml by stirring overnight at 6° C., and emulsified in an equal volume of incomplete (IFA) or complete Freund's adjuvant (CFA) containing 1.5 mg/ml heat killed Mycobacterium butyricum (Difco, Detroit, Mich.). Mice were sensitized with a single 100 μl intradermal injection of the emulsion at the base of the tail. Mice were examined daily for signs of arthritis. The disease severity was recorded following a scoring system for each limb. Score 0: normal; score 1: redness and/or swelling in one joint; score 2: redness and/or swelling in more than one joint; score 3: redness and/or welling in the entire paw; score 4: deformity and/or ankylosis.
# Spleens and fore and hind limbs were fixed in buffered saline—B5fixative (10% formalin with quicksilver). […] Limbs were subsequently decalcified overnight with formic acid. […] Severity of arthritis was evaluated using three parameters: infiltration of mono- and polymorphonuclear cells, hyperplasia of the synovium and parmus formation. Each parameter was scored on a scale from 0 to 3 (absent; weak, moderate and severe).
structure (smiles),measurement,setting,value
"c1cc(CN2CCCNCCNCCCNCC2)ccc1CN1CCCNCCNCCCNCC1 [AMD3100, 1,1′-[1,4-phenylenebis(methylene)]bis-1,4,8,11-tetraazacyclotetradecane]",Body weight loss compared with control animals,"collagen-injected mice, treated",did not demonstrate any significant body weight loss
same,Time until the single affected treated animal developed arthritic pathology,post-treatment,> 20 days
